{
  "source": "patent US11654108B1",
  "about": "“Sennoside medicated chews” (MEDICATED CHEWS, LLC, priority 2022, dated 2023)",
  "origin": "cited, not measured here",
  "key": {"[1]": {"conditions": "after oral administration of sennosides"}},
  "data": [
    {"substance": "sennosides", "values": [
      {"measurement": "metabolites excreted in urine", "setting": "[1]", "value": "3-6%"},
      {"measurement": "sennosides excreted in feces as polymers (polyquinones)", "setting": "[1]", "value": 90, "unit": "%"},
      {"measurement": "unchanged sennosides, sennidins, rheinanthrone and rhein excreted in feces", "setting": "[1]", "value": "2-6%"},
      {"measurement": "absorption in the upper gut / splitting by human digestive enzymes", "setting": "upper gut, human digestive enzymes", "value": "neither absorbed in the upper gut nor split by human digestive enzymes"}
    ]}
  ]
}
